Each compound was assayed against T1, human histamine H3 receptor (Homo sapiens, UniProt Q9Y5N1) (assay: [3H]-N-methylhistamine binding). Details: Table 1; [3H]-N-methylhistamine binding.
T1 construct: One microgram of supercoiled H3 receptor cDNA was added to the cells and mixed; expressed in transfected cells; membranes
Method: Thus in the present invention receptor binding was determined using the human histamine H3 receptor (See Lovenberg et al Mol. Pharmacol. 1999, 1107). Screening using the human receptor is particularly important for the identification of new therapies for the treatment of human disease. Conventional binding assays for example are determined using rat synaptosomes (Garbarg et al J. Pharmacol. Exp. Ther. 1992, 263, 304), rat cortical membranes (West et al Mol. Pharmacol. 1990, 610), and guinea pig brain (Korte et al Biochem. Biophys. Res. Commun. 1990, 978). Only limited studies have been performed previously using human tissue but these allude to significant differences in the pharmacology of rodent and primate receptors (West et al Eur. J. Pharmacol. 1999, 233).
Transfection of Cells with Human Histamine Receptor
A 10 cm tissue culture dish with a confluent monolayer of SK-N-MC cells was split two days prior to transfection. Using sterile technique the media was removed and the cells were detached from the dish by the addition of trypsin. One fifth of the cells were then placed onto a new 10 cm dish. Cells were grown in a 37° C. incubator with 5% CO2 in Minimal Essential Media Eagle with 10% Fetal Bovine Serum. After two days cells were approximately 80% confluent. These were removed from the dish with trypsin and pelleted in a clinical centrifuge. The pellet was then re-suspended in 400 μL complete media and transferred to an electroporation cuvette with a 0.4 cm gap between the electrodes (Bio-Rad #165-2088). One microgram of supercoiled H3 receptor cDNA was added to the cells and mixed. The voltage for the electroporation was set at 0.25 kV, the capacitance was set at 960 μF. After electroporation the cells were diluted into 10 mL complete media and plated onto four 10 cm dishes. Because of the variability in the efficiency of electroporation, four different concentrations of cells were plated. The ratios used were; 1:20, 1:10, 1:5, with the remainder of the cells being added to the fourth dish. The cells were allowed to recover for 24 hours before adding the selection media (complete media with 600 μg/mL G418). After 10 days dishes were analyzed for surviving colonies of cells. Dishes with well isolated colonies were used. Cells from individual colonies were isolated and tested. SK-N-MC cells were used because they give efficient coupling for inhibition of adenylate cyclase. The clones that gave the most robust inhibition of adenylate cyclase in response to histamine were used for further study.
[^3H]-N-methylhistamine Binding
Cell pellets from histamine H3 receptor-expressing SK-N-MC cells were homogenized in 20 mM TrisHCl/0.5 mM EDTA. Supernatants from a 800 g spin were collected, recentrifuged at 30,000 g for 30 minutes. Pellets were re-homogenized in 50 mM Tris/5 mM EDTA (pH 7.4). Membranes were incubated with 0.8 nM [^3H]-N-methylhistamine plus/minus test compounds for 45 min at 25° C. and harvested by rapid filtration over GF/C glass fiber filters (pretreated with 0.3% polyethylenimine) followed by four washes with ice cold buffer. Filters were dried, added to 4 mL scintillation cocktail and then counted on a liquid scintillation counter. Non-specific binding was defined with 10 μM histamine. The pKi values were calculated based on a Kd of 800 pM and a ligand concentration ([L]) of 800 pM according to the formula: Ki=(IC50)/(1+([L]/(Kd))

T1 sequence (Q9Y5N1 whole entry): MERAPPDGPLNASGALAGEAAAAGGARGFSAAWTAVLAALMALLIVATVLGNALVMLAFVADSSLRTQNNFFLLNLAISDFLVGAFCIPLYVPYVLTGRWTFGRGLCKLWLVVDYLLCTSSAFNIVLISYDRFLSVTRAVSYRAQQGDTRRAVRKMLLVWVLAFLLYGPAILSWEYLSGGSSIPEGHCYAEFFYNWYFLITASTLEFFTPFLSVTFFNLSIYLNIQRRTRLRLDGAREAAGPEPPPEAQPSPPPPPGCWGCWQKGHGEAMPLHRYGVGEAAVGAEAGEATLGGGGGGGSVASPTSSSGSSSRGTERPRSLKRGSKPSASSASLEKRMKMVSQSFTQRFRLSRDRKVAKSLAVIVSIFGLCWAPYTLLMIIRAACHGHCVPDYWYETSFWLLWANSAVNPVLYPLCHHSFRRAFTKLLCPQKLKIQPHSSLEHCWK

Ki [nM] | SMILES
1000 | c1ccc(-c2ccc([C@H]3CC[C@H]4CCCCN43)cc2)cc1 (racemic) [Example 3]
9 | c1cc([C@H]2CC[C@H]3CCCCN32)ccc1OCCN1CCCCC1 (racemic) [Example 16, 3-[4-(2-Piperidin-1-yl-ethoxy)-phenyl]-octahydro-indolizine]

Same assay, conditions: Table 2; [3H]-N-methylhistamine binding

Ki [nM] | SMILES
558 | N#Cc1ccc(Sc2ccc([C@H]3CC[C@H]4CCCCN43)cc2)cc1 (racemic) [Example 38]
163 | O=c1[nH]c(Sc2ccc([C@H]3CC[C@H]4CCCCN43)cc2)nc2ccccc12 (racemic) [Example 33]
490 | c1ccc2[nH]c(Oc3ccc([C@H]4CC[C@H]5CCCCN54)cc3)nc2c1 (racemic) [Example 30]

SMILES | Ki [nM]
c1cnc(Sc2ccc([C@H]3CC[C@H]4CCCCN43)cc2)nc1 (racemic) [Example 32] | 650

Same assay, conditions: Table 5; [3H]-N-methylhistamine binding

SMILES | Ki [nM]
[O-][n+]1ccc(CNc2ccc([C@H]3CC[C@H]4CCCCN43)cc2)cc1 (racemic) [Example 133] | 4380

Same assay, conditions: [3H]-N-methylhistamine 0.8 nM, membranes of H3 receptor-expressing SK-N-MC cells

Ki [nM] | SMILES
296 | Nc1ccc(Oc2ccc([C@H]3CC[C@H]4CCCCN43)cc2)cc1 (racemic) [Example 78, trans-3-[4-(4-Aminophenoxy)phenyl]octahydroindolizine]
278 | ClCCCCOc1ccc([C@@H]2CCC[C@@H]3CCCN32)cc1 (racemic) [Example 61, 5-[4-(4-Chlorobutanoxy)phenyl]octahydroindolizine]
40 | NC(=NO)c1ccc(Sc2ccc([C@H]3CC[C@H]4CCCCN43)cc2)cc1 (racemic) [Example 43, tran-3-[4-((4-Amidoxime)phenylthio)phenyl]octahydroindolizine]
0.2 | c1cc(C2CC3CCCCN3C2)ccc1OCCCN1CCCCC1 (stereo not drawn) [Example 69, syn-2-[4-(3-Piperidinylpropanoxy)phenyl]octahydroindolizine]
1.8 | C(#CCN1CCCCC1)COc1ccc([C@H]2CC[C@H]3CCCCN32)cc1 (relative stereo) [Example 84, trans-3-[4-(3-Piperidinylmethylpropargyloxy)phenyl]octahydroindolizine]
320 | CS(=O)(=O)Nc1cccc(-c2ccc([C@H]3CC[C@H]4CCCCN43)cc2)c1 [Example 55, tran-3-[4-(3-Methylsulfonylaminophenyl)phenyl]octahydroindolizine]
1500 | C[Si](C)(C)C#Cc1ccc([C@H]2CC[C@H]3CCCCN32)cc1 (racemic) [Example 74, trans-3-(4-trimethylsilylacetylenephenyl)octahydroindolizine]
243 | CS(=O)(=O)N1CCC(Nc2ccc([C@H]3CC[C@H]4CCCCN43)cc2)CC1 (racemic) [Example 102, trans-3-[4-(N-Methylsulfonyl-4-aminopiperidine)phenyl]octahydroindolizine]
327 | C=CC(=O)Nc1ccc([C@@H]2CC[C@@H]3CCCCN32)cc1 (relative stereo) [Example 107, N-[4-(trans-Octahydro-3-indolizinyl)phenyl]propenamide]
803 | OC(c1ccc(Cl)cc1)c1ccc(C2CCC3CCCCN32)cc1 (mixture of isomers) [Example 123, trans-3-{4-[(4-Chlorophenyl)methan-1-ol]phenyl}octahydroindolizine]
> 5000 | CN(c1ccc([C@H]2CC[C@H]3CCCCN32)cc1)S(C)(=O)=O (racemic) [Example 99, trans-3-(4-(N-Methyl-N-methylsulfonylamido)phenyl)octahydroindolizine]
62 | Nc1ccc(Sc2ccc([C@H]3CC[C@H]4CCCCN43)cc2)cc1 (racemic) [Example 40, tran-3-[4-(4-Aminophenylthio)phenyl]octahydroindolizine]
308 | CS(=O)(=O)Nc1cccc(COc2ccc([C@H]3CC[C@H]4CCCCN43)cc2)c1 (racemic) [Example 83, trans-3-[4-(3-Methansulfonaminobenzyloxy)phenyl]octahydroindolizine]
11 | O=S(=O)(CCN1CCCCC1)Nc1ccc([C@H]2CC[C@H]3CCCCN32)cc1 (racemic) [Example 120, trans-3-{4-[(2-Piperidylethyl)sulfonyl]amidophenyl}octahydroindolizine]

Further lines, the compound ahead of its results:

SMILES | Ki [nM]
O=[N+]([O-])c1ccc(Sc2ccc([C@@H]3CCC[C@@H]4CCCN43)cc2)cc1 (racemic) [Example 27, 5-[4-(4-Nitrophenylthio)phenyl]octahydroindolizine] | 323
c1cc([C@@H]2CCC[C@@H]3CCCN32)ccc1OCCCCN1CCCCC1 (racemic) [Example 62] | 0.7
C#Cc1ccc([C@H]2CC[C@H]3CCCCN32)cc1 (racemic) [Example 75, trans-3-(4-acetylenephenyl)octahydroindolizine] | 1100
c1ccc(N2CCN(Cc3ccc([C@H]4CC[C@H]5CCCCN54)cc3)CC2)cc1 (racemic) [Example 23, trans-3-[4-(N-Phenyl-1-piperazinylmethyl)phenyl]octahydroindolizine] | 65
O=S(=O)(Nc1ccc([C@@H]2CC[C@@H]3CCCCN32)cc1)C1CCCNC1 (relative stereo) [Example 117, trans-3-[4-(3-Piperidylsulfonylamino)phenyl]octahydroindolizine] | 4
CN(CCCN1CCCCC1)c1ccc([C@@H]2CC[C@@H]3CCCCN32)cc1 (relative stereo) [Example 110, trans-3-[4-(N-Methyl-N-3-piperidylpropylamino)phenyl]octahydroindolizine] | 2
c1cc([C@@H]2CC[C@@H]3CCCCN32)ccc1NCCCN1CCCCC1 (relative stereo) [Example 106, trans-3-[4-(N-3-Piperidylpropylamino)phenyl]octahydroindolizine] | 1.5
Oc1ccc([C@@H]2CCC[C@@H]3CCCN32)cc1 (racemic) [Example 60, 5-(4-Hydroxyphenyl)octahydroindolizine] | 1400
CN(C)c1ccc([C@@H]2CC[C@@H]3CCCCN32)cc1 (relative stereo) [Example 96, trans-3-(4-(N,N-Dimethylamino)phenyl)octahydroindolizine] | 380
CN(c1ccc([C@@H]2CC[C@@H]3CCCCN32)cc1)S(=O)(=O)C1CCCNC1 (relative stereo) [Example 118, trans-3-[4-(3-Piperidylsulfonyl-N-methylamino)phenyl]octahydroindolizine] | 61
O=C(CCCN1CCCCC1)Nc1ccc([C@@H]2CC[C@@H]3CCCCN32)cc1 (relative stereo) [Example 111, trans-3-[4-(N-4-Piperidylbutanamido)phenyl]octahydroindolizine] | 3
O=Cc1ccc([C@H]2CC[C@H]3CCCCN32)cc1 (racemic) [trans-3-(4-Formylphenyl)octahydroindolizine] | 587
c1cc([C@@H]2CC[C@@H]3CCCCN32)ccc1NCCCCCN1CCCCC1 (relative stereo) [Example 115, trans-3-[4-(N-5-Piperidylpentylamino)phenyl]octahydroindolizine] | 0.7
COc1ccccc1[C@H]1C[C@@H]2CCCCN2C1 (relative stereo) [Example 70, anti-2-(2-Methoxyphenyl)octahydroindolizine] | 792
c1cc([C@H]2CC[C@H]3CCCCN32)ccc1OCCN1CCCCC1 (racemic) [Example 16, 3-[4-(2-Piperidin-1-yl-ethoxy)-phenyl]-octahydro-indolizine] | 9.1
c1ccc2c(Oc3ccc([C@H]4CC[C@H]5CCCCN54)cc3)ncnc2c1 (racemic) [Example 34, 4-[4-(Octahydro-indolizin-3-yl)-phenoxy]-quinazoline] | 92

Same assay, conditions: [3H]-N-methylhistamine binding; value printed under example heading without unit

Ki [nM] | SMILES
1480 | O/N=C\c1ccsc1-c1ccc([C@H]2CC[C@H]3CCCCN32)cc1 (racemic) [Example 54, tran-3-[4-(3-hydroxyiminomethylthienyl)phenyl]octahydroindolizine]

From patent US20050288323A1, “Octahydro-indolizine and quinolizine and hexahydro-pyrrolizine” (priority 2000, published 2005)
